Seven compounds from ChEMBL document CHEMBL5303573, “Mapping human microbiome drug metabolism by gut bacteria and their genes” (Nature, 2019) can be followed below.

A short description of data set [1]: The drug is tested on Bacteroides fragilis strain: HMW610 for biotransformation. The drug concentrations were measured before and after a 12-h incubation by liquid-chromatography-coupled mass spectrometry (LC–MS). The conditions noted are these: 2 µM.
Data set [2] can be described thus: The drug is tested on Coprococcus comes strain: ATCC27758 for biotransformation. The drug concentrations were measured before and after a 12-h incubation by liquid-chromatography-coupled mass spectrometry (LC–MS). The class given is ADME. More on the design: dose 2 uM, timepoint 0 vs 12 hours. The conditions noted are these: 2 µM.
The target in data set [3] is T1, Endoglucanase E (EGE) (Bacteroides thetaiotaomicron, UniProt Q8AAL9).
T1 sequence (Q8AAL9 whole entry): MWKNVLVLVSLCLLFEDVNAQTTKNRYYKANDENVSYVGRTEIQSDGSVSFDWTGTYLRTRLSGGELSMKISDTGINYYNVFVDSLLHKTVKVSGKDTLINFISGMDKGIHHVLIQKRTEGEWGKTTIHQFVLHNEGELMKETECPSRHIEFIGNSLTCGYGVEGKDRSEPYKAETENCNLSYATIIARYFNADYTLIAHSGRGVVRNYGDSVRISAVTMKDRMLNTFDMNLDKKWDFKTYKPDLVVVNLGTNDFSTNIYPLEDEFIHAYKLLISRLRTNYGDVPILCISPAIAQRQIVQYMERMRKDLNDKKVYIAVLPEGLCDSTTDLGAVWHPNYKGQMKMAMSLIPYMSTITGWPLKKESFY
Kind of data set: (§1) The drug is tested on Bacteroides thetaiotaomicron strain: VPI-5482 for biotransformation. The drug concentrations were measured before and after a 12-h incubation by liquid-chromatography-coupled mass spectrometry (LC–MS). The class given is ADME. Set-up: dose 2 uM. The conditions noted are these: 2 µM.

Data set [4] has as its target T2, Nitroreductase (Bacteroides thetaiotaomicron, UniProt Q8A911).
T2 sequence (Q8A911 whole entry): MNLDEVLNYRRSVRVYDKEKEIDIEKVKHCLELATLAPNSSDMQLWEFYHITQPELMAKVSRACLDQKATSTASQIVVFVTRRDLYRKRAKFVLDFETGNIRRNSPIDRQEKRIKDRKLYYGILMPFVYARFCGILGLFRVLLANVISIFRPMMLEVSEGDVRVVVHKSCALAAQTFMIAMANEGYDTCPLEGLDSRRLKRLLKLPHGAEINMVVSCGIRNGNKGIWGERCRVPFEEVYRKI
The description is as §1. The class given is ADME. Set-up: dose 2 uM. The conditions noted are these: 2 µM.

The target of data set [5] is T3, Sialic acid-specific acetylesterase (Bacteroides thetaiotaomicron, UniProt Q8A331).
T3 sequence (Q8A331 whole entry): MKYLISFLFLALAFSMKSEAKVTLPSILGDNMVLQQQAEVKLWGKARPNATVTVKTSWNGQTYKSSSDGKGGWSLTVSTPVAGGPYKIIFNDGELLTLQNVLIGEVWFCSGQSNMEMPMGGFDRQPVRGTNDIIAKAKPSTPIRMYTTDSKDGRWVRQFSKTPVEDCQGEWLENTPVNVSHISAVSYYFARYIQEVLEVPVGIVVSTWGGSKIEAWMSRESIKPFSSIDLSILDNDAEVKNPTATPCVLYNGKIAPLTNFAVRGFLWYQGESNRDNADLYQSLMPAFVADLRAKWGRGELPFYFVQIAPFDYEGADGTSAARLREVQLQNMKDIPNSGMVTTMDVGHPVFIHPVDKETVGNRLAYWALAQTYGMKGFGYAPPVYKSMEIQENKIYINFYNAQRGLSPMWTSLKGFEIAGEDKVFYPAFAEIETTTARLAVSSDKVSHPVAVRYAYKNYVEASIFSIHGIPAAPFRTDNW
Described as §1. The conditions noted are these: 2 µM. The class given is ADME. Set-up: dose 2 uM.

In data set [6] the target is T4, Regulatory protein (Bacteroides thetaiotaomicron, UniProt Q8A576).
T4 sequence (Q8A576 whole entry): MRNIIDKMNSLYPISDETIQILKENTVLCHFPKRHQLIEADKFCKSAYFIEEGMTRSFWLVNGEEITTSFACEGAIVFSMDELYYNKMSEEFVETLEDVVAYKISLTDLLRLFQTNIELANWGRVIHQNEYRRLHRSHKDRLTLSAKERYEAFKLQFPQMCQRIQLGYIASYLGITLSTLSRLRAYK
The description is as §1. The class given is ADME. Set-up: dose 2 uM. The conditions noted are these: 2 µM.

In data set [7] the target is T5, Lipolytic enzyme, G-D-S-L family (Bacteroides thetaiotaomicron, UniProt Q8A0E6).
T5 sequence (Q8A0E6 whole entry): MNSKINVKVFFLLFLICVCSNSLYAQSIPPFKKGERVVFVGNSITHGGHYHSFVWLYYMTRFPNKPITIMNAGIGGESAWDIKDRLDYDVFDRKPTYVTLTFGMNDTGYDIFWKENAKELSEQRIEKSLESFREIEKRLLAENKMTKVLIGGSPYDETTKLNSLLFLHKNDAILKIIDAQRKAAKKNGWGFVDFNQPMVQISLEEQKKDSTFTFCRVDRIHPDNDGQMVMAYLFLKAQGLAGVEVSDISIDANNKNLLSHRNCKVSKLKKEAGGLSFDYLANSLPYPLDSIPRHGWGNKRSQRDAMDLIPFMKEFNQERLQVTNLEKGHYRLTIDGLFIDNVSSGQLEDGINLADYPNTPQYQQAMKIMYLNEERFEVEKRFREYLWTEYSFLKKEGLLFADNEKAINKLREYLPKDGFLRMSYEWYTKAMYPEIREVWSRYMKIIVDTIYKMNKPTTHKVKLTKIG
Described as §1. The class given is ADME. More on the design: dose 2 uM. The conditions noted are these: 2 µM.

For data set [8], the target named is T6, Nitroreductase-like protein (Bacteroides thetaiotaomicron, UniProt Q8AB93).
T6 sequence (Q8AB93 whole entry): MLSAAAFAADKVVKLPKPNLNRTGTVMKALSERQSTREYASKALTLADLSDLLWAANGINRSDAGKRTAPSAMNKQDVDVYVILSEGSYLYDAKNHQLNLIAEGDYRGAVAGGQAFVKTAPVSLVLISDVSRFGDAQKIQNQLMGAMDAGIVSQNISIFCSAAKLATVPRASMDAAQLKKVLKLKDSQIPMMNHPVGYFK
Described as §1. Set-up: dose 2 uM. The conditions noted are these: 2 µM. The format is ADME.

Data set [9] concerns the target General stress protein (Bacteroides thetaiotaomicron, UniProt Q8A7U5). The description is as §1. The class given is ADME. More on the design: dose 2 uM. The conditions noted are these: 2 µM.
The target of data set [10] is T7, 3-oxo-5-alpha-steroid 4-dehydrogenase (Bacteroides thetaiotaomicron, UniProt Q8A618).
T7 sequence (Q8A618 whole entry): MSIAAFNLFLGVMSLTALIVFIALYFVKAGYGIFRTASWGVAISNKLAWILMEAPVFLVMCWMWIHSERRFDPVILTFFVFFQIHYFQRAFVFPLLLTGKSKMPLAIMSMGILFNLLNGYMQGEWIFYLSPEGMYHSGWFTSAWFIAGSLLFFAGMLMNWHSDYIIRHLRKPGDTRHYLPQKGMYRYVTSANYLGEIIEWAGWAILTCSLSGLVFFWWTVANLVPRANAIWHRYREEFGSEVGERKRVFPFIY
The data set is described as §1. The format is ADME. Set-up: dose 2 uM. The conditions noted are these: 2 µM.

For data set [11] the following is noted: bacteroides fragilis, 12 h, 2 µM.
Description: The drug is tested on Bacteroides fragilis strain: NCTC 9343 for biotransformation. The drug concentrations were measured before and after a 12-h incubation by liquid-chromatography-coupled mass spectrometry (LC–MS)
Data set [12] can be described thus: The drug is tested on Blautia hansenii strain: DSM20583 for biotransformation. The drug concentrations were measured before and after a 12-h incubation by liquid-chromatography-coupled mass spectrometry (LC–MS). The conditions noted are these: 2 µM.
Data set [13] is described as follows: The drug is tested on Dorea formicigenerans strain: ATCC27755 for biotransformation. The drug concentrations were measured before and after a 12-h incubation by liquid-chromatography-coupled mass spectrometry (LC–MS). The conditions noted are these: 2 µM.
Data set [14] in a line: The drug is tested on Odoribacter splanchnicus strain: fecal isolate for biotransformation. The drug concentrations were measured before and after a 12-h incubation by liquid-chromatography-coupled mass spectrometry (LC–MS). The conditions noted are these: 2 µM.
For data set [15] the following is noted: limosilactobacillus reuteri cf48-3a, 12 h, 2 µM.
Description: The drug is tested on Lactobacillus reuteri CF48-3A strain: BEI HM-102 for biotransformation. The drug concentrations were measured before and after a 12-h incubation by liquid-chromatography-coupled mass spectrometry (LC–MS)

Sequence of General stress protein (Q8A7U5 1-138, change not shown): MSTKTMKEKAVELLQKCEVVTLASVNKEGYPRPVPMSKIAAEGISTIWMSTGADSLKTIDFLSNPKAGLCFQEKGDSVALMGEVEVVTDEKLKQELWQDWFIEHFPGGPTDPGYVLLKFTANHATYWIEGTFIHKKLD

Consider `C#C[C@]1(O)CC[C@H]2[C@@H]3CCC4=Cc5oncc5C[C@]4(C)[C@H]3CC[C@@]21C` [DANAZOL], for which the “Bacterial Biotransformation” value is recorded as “Compound metabolized” in [1]; “Compound metabolized” in [2]; “Compound NOT metabolized” in data set [3]; “Compound NOT metabolized” in [4]; “Compound NOT metabolized” in data set [5]; “Compound NOT metabolized” in [6]. Further, the “Bacterial Biotransformation” value is reported as “Compound NOT metabolized” in data set [7]; “Compound NOT metabolized” in [8]; “Compound NOT metabolized” in data set [9]; “Compound NOT metabolized” in data set [10]; “Compound metabolized” in [11]; “Compound metabolized” in data set [12]. For the same compound, the “Bacterial Biotransformation” value in data set [13] and in data set [14] was “Compound metabolized” throughout.

With `CC(=O)OCC(=O)[C@@]12N=C(C)O[C@@H]1C[C@H]1[C@@H]3CCC4=CC(=O)C=C[C@]4(C)[C@H]3[C@@H](O)C[C@@]12C` [DEFLAZACORT], the “Bacterial Biotransformation” value in data set [1] is reported as “Compound metabolized”; in [2] it was “Compound metabolized”; in data set [3], “Compound NOT metabolized”; in data set [4], “Compound NOT metabolized”; in data set [6], “Compound NOT metabolized”; in data set [7] it was “Compound NOT metabolized”. The “Bacterial Biotransformation” value is “Compound NOT metabolized” in data set [8]; “Compound NOT metabolized” in data set [9]; “Compound NOT metabolized” in data set [10]; “Compound metabolized” in data set [11]; “Compound metabolized” in data set [12]; “Compound metabolized” in data set [15]. For the same compound, the “Bacterial Biotransformation” value in data set [13] and in [14] was “Compound metabolized” in each case.

Take `CCOC(=O)C1=C(C)NC(C)=C(C(=O)OC)C1c1cccc([N+](=O)[O-])c1` (stereo unspecified) [NITRENDIPINE]: the “Bacterial Biotransformation” value is listed as “Compound metabolized” in data set [1]; “Compound metabolized” in [2]; “Compound NOT metabolized” in data set [4]; “Compound NOT metabolized” in data set [5]; “Compound NOT metabolized” in [6]; “Compound NOT metabolized” in data set [7]. Further, the “Bacterial Biotransformation” value is “Compound metabolized” in [8]; “Compound NOT metabolized” in data set [9]; “Compound NOT metabolized” in [10]; “Compound metabolized” in [11]; “Compound metabolized” in [12]; “Compound metabolized” in data set [15]. In addition, the “Bacterial Biotransformation” value in data set [13] and in data set [14] was “Compound metabolized” throughout.

For `CC(=O)SCC(Cc1ccccc1)C(=O)NCC(=O)OCc1ccccc1` (stereo unspecified) [RACECADOTRIL], the “Bacterial Biotransformation” value in [1] is “Compound metabolized”; in data set [3], “Compound NOT metabolized”; in [4], “Compound NOT metabolized”; in data set [5], “Compound metabolized”; in [6], “Compound NOT metabolized”; in data set [7], “Compound NOT metabolized”. Besides, the “Bacterial Biotransformation” value in [8] is listed as “Compound NOT metabolized”; in data set [9], “Compound NOT metabolized”; in data set [10], “Compound NOT metabolized”; in data set [11], “Compound metabolized”; in [12] it was “Compound metabolized”; in data set [14] it was “Compound metabolized”.

For the compound `CC(=O)OCC(=O)NCCCOc1cccc(CN2CCCCC2)c1` [ROXATIDINE ACETATE], the “Bacterial Biotransformation” value in [1] is on record as “Compound metabolized”; in [2] it was “Compound metabolized”; in [3] it was “Compound NOT metabolized”; in data set [4], “Compound NOT metabolized”; in data set [5], “Compound NOT metabolized”; in data set [6] it was “Compound metabolized”. Also, the “Bacterial Biotransformation” value is on record as “Compound NOT metabolized” in data set [8]; “Compound NOT metabolized” in [9]; “Compound NOT metabolized” in data set [10]; “Compound metabolized” in data set [11]; “Compound NOT metabolized” in data set [15]; “Compound metabolized” in data set [13]. Also, the “Bacterial Biotransformation” value in [14] is reported as “Compound metabolized”.

On to `COc1ccc2[nH]c([S+]([O-])Cc3ncc(C)c(OC)c3C)nc2n1` (stereo unspecified) [TENATOPRAZOLE], for which the “Bacterial Biotransformation” value in [1], in [2], in data set [11], in [12], in data set [15] and in data set [13] was “Compound metabolized” throughout. For the same compound, the “Bacterial Biotransformation” value in data set [14] was “Compound metabolized”.

With `CN1CCN(CC/C=C2/c3ccccc3Sc3ccc(S(=O)(=O)N(C)C)cc32)CC1` [THIOTHIXENE], the “Bacterial Biotransformation” value is “Compound NOT metabolized” in data set [1]; “Compound NOT metabolized” in [2]; “Compound metabolized” in [11]; “Compound metabolized” in data set [12]; “Compound metabolized” in data set [15]; “Compound NOT metabolized” in data set [13]. Besides, the “Bacterial Biotransformation” value in [14] was “Compound metabolized”.
